Experimental data from PMC9781827, “Isolation and Identification of Anti-Inflammatory Peptide from Goose Blood Hydrolysate to Ameliorate LPS-Mediated Inflammation and Oxidative Stress in RAW264.7 Macrophages” (Molecules, 2022).

Legend:
Type in all cases: cell-based
iNOS = test: Western blot of iNOS in RAW264.7 macrophages; conditions: LPS group vs CTRL group, p < 0.05
Method: RAW264.7 macrophages were washed with cold PBS and homogenized with two small magnetic beads (2 mm) and 10× volume of RIPA buffer containing 1% protease inhibitors for 60 s. Then the supernatant was collected after centrifuging at 12,000× g for 10 min at 4 °C, which was the total protein solution. The concentration of protein in the total protein solution was measured by BCA kits. The protein concentration of the supernatant was diluted to 2.0 mg/mL and mixed with an equal volume of buffer (0.25 mol/L Tris-HCl buffer, pH 6.8, containing 4% SDS and 20% glycerol with 20 mmol/L 2-mercaptoethanol). The stacking gel and separating gel were made of 5% (w/v) and 10% (w/v) polyacrylamide, respectively. Electrophoresis was carried out at 80 V until the dye front reached the bottom of the stacking gel, and the gel was run at 120 V until the dye front reached the bottom of the separating gel (165-8001, Bio-Rad Mini-PROTEAN Tetra Electrophoresis System). The PVDF membrane was covered on the gel and transferred membrane at 300 mA for 30 min. The membrane was moved into a decolorization shaker with 5% skim milk (0.5% TBST) and blocked for 1 h at room temperature. […] The film was scanned and archived, processed and decolorized by Photoshop, and the optical density value of the target band was analysed by ImageJ software processing system.

SOD = SOD activity in LPS-mediated RAW264.7 macrophages; conditions: LPS alone; mean ± S.D., n = 3
Method: (§1) The culture medium was collected and centrifuged at 3000× g for 10 min. Then, the inflammatory cytokines levels of TNF-α (MB-50051A), IL-1β (MB-50064B) and IL-6 (MB-50054A) in the culture medium were determined with ELISA kits (Jiangsu Enzyme marker Biotechnology Co., Ltd., Yancheng, China). […] (7) Add 50 μL of stop solution to each well, and measure its absorbance value at 450 nm wavelength. The activities of SOD, GSH-Px and the levels of ROS and Nitric oxide (NO) in macrophages were determined with spectrophotometric kits. […] The absorbance value of miscible liquid was measured at 450 nm wavelength by a multifunctional microplate reader; GSH-Px: 0.2 mL of sample was mixed with 0.2 mL GSH-Px (1 mmol/L) and performed at 37 °C for 5 min. […] The absorbance value was measured at 412 nm wavelength by a multifunctional microplate reader; ROS: DCFH-DA probe was added directly to serum-free medium: DCFH-DA was generally diluted with serum-free medium at a final concentration of 10 µM at 1:1000. […] In general, obvious green fluorescence can be observed in positive control cells after 20 min of stimulation. […] It can also be detected according to FITC fluorescence detection conditions. The results were expressed as fluorescence values.

ROS = ROS level in LPS-mediated RAW264.7 macrophages (DCFH-DA probe); conditions: stimulation with LPS alone; mean ± S.D., n = 3
Method: as §1

## lipopolysaccharide [LPS]
iNOS
  protein expression level of iNOS: higher
SOD
  level of SOD: 24.43 ± 1.41 U/mg prot
ROS
  levels of ROS: 61.96 ± 2.27 U/mg prot
